Measurements reported in patent publication US20240246918A1, “COMPOUNDS AND COMPOSITIONS AS EIF4E INHIBITORS AND THE USES THEREOF” (Ribometrix, Inc., priority 2022, published 2024).

Assays:
[1] = system: COLO 205 colorectal tumor cells; experiment: Tumor cell viability inhibition assay (CellTiter-Glo 2.0, 72 hours); assay type: cell-based; conditions: COLO 205 cell viability
Protocol: The effect of compound treatment on COLO 205 tumor cell viability was assessed using cellular ATP quantification methods (Promega CellTiter-Glo® 2.0, G9241), as follows. Test compounds were prepared using 11-point, 4-fold serial dilutions in DMSO and 100 nL of diluted compounds were transferred to 384-well assay-ready plates. COLO 205 (ATCC, CCL-222) colorectal tumor cells were seeded to assay-ready plates in RPMI-1640 medium supplemented with 10% FBS at 1500 cells in a volume of 33.5 microliters per well. After 72 hours of compound treatment, cellular ATP was assessed by CellTiter-Glo® 2.0 Cell Viability Assay method, according to the manufacturer's instructions. Luminescence was measured using a Clariostar Plus microplate reader (BMG Labtech) or equivalent. After normalization to the average of DMSO control and maximum inhibition control wells, concentration-response data were plotted and standard 4-parameter curve fitting (PEI Signals) was utilized to determine IC50

human eIF4E protein = biological target: T1, human eIF4E protein (Homo sapiens, UniProt P06730); experiment: Biochemical competitive binding assay (TR-FRET competition, EDA-m7GDP-ATTO-647N probe); conditions: read-out: hEIF4E TR-FRET IC50
T1 construct: purchased Novus NBP-45314
T1 sequence (P06730 whole entry): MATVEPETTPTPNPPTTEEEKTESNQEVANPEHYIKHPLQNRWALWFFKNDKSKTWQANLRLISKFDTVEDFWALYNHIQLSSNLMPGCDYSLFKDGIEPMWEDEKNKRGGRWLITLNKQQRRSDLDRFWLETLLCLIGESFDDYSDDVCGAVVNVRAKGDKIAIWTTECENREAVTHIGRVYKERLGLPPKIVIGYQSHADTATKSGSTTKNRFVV
Protocol: The potencies of compounds binding to human eIF4E protein were measured using a 384-well time-resolved fluorescence resonance energy transfer (TR-FRET) competition assay. The assay was performed in assay buffer containing 50 mM HTEPES pH 7.5, 100 mM KCl, 0.02% Tween-20, and 0.1 mg/mL bovine serum albumin (BSA). The reaction volume was 10 μL and each reaction contained 4 nM recombinant 6×HIS-tagged human EIF4E protein (Novus, NBP-45314), 5 nM EDA-m7GDP-ATTO-647N (Jena Bioscience, NU-827-647N), 2.5 nM Europium conjugated Anti-6×HIS antibody (PerkinElmer, AD0402) and varying concentrations of compound. The final DMSO concentration was […].
Compounds were prepared using 11-point, 4-fold serial dilutions in DMSO and 100 nL of diluted compounds were transferred to 384-well assay-ready plates. Recombinant human EIF4E protein at 2× final concentration (8 nM) was pre-incubated with Eu-anti-6×HIS antibody at 2× final concentration (5 nM) for 5 minutes, then 5 μL of the protein solution was added to assay-ready plates. The protein/compound mix was incubated for 15 minutes, after which 5 μL of a solution containing EDA-m7GDP-ATTO-647N probe at 2× final concentration (10 nM) was added. After a subsequent 15-minute incubation, time-resolved fluorescence of assay plates was measured using a Clariostar Plus microplate reader (BMG Labtech) and TR-FRET values were calculated by taking a ratio of the 665 to 620 wavelength signals. After normalization to the average of DMSO control and maximum inhibition control wells, concentration-response data were plotted and standard 4-parameter curve fitting (PEI Signals) was utilized to determine IC50 values.

| Structure (SMILES) | IC50 ([1]; Homo sapiens, COLO 205, 72 h) | IC50 (human eIF4E protein) | IC50 [1] |
| --- | --- | --- | --- |
| Cc1cc(-c2cc(Cl)ccc2OCCn2c(C)nc3c(c2=O)C[C@@H](N2CC[C@@H](C(F)F)C2)CC3)c2scc(C(=O)O)c2n1 (single isomer, unassigned) [Compound 120] | < 5 µM | < 0.1 µM | – |
| Cc1cc(-c2cc(Cl)ccc2OCCn2c(C)nc3c(c2=O)C[C@H](N2CC[C@@H](C(F)F)C2)CC3)c2scc(C(=O)O)c2n1 (single isomer, unassigned) [Compound 121] | < 5 µM | < 0.1 µM | – |
| Cc1cc(-c2cc(Cl)ccc2OCCn2c(C)nc3c(c2=O)C[C@H](N2CC[C@H](C(F)F)C2)CC3)c2scc(C(=O)O)c2n1 (single isomer, unassigned) [Compound 122] | < 5 µM | < 0.1 µM | – |
| Cc1cc(-c2cc(Cl)ccc2OCCn2c(C)nc3c(c2=O)C[C@@H](N2CC4(CCC(F)(F)CC4)C2)CC3)c2scc(C(=O)O)c2n1 (single isomer, unassigned) [Compound 128] | < 5 µM | < 0.1 µM | – |
| Cc1cc(-c2cc(Cl)ccc2OCCn2c(C)nc3c(c2=O)C[C@H](N2CC4(CCC(F)(F)CC4)C2)CC3)c2scc(C(=O)O)c2n1 (single isomer, unassigned) [Compound 131] | < 5 µM | < 0.1 µM | – |
| Cc1cc(-c2cc(Cl)ccc2OCCn2c(C)nc3c(c2=O)CC(N2CCC(OC(F)(F)F)CC2)CC3)c2scc(C(=O)O)c2n1 (single isomer, unassigned) [Compound 135] | < 5 µM | < 0.1 µM | – |
| Cc1cc(-c2cc(Cl)ccc2OCCn2c(C)nc3c(c2=O)C[C@H](N2CCC[C@]4(C2)CC4(F)F)CC3)c2scc(C(=O)O)c2n1 (single isomer, unassigned) [Compound 137] | < 5 µM | < 0.1 µM | – |
| Cc1cc(-c2cc(Cl)ccc2OCCn2c(C)nc3c(c2=O)C[C@@H](N(C)[C@H]2CC[C@@](C)(O)C2)CC3)c2scc(C(=O)O)c2n1 (single isomer, unassigned) [Compound 184] | > 20 µM | < 0.1 µM | – |
| Cc1cc(-c2cc(Cl)ccc2OCCn2c(C)nc3c(c2=O)C[C@@H](N(C)C[C@H]2C[C@](C)(O)C2)CC3)c2scc(C(=O)O)c2n1 (single isomer, unassigned) [Compound 211] | > 20 µM | < 0.1 µM | – |
| COc1cc(CN(C)C2CCc3nc(C)n(CCOc4ccc(Cl)cc4-c4cc(C)nc5c(C(=O)NS(C)(=O)=O)csc45)c(=O)c3C2)ccn1 (single isomer, unassigned) [Compound 220] | – | < 0.1 µM | < 5 µM |
| Cc1cc(-c2cc(Cl)ccc2OCCn2c(C)nc3c(c2=O)C[C@@H](N(C)[C@H]2CC[C@@](C)(O)CC2)CC3)c2scc(C(=O)O)c2n1 (single isomer, unassigned) [Compound 225] | > 20 µM | < 0.1 µM | – |
| Cc1cc(-c2cc(Cl)ccc2OCCn2c(C)nc3c(c2=O)C[C@@H](N(C)[C@H]2CC[C@](C)(O)CC2)CC3)c2scc(C(=O)O)c2n1 (single isomer, unassigned) [Compound 226] | > 20 µM | < 0.1 µM | – |
| Cc1cc(-c2ccc(Cl)cc2OCCn2c(C)nc3c(c2=O)C[C@@H](N(C)[C@H]2C[C@@](C)(O)C2)CC3)c2scc(C(=O)O)c2n1 (single isomer, unassigned) [Compound 228] | > 20 µM | < 0.1 µM | – |
| Cc1cc(-c2cc(Cl)c(=O)[nH]c2OCCn2c(C)nc3c(c2=O)CC(N(C)C2CC2)CC3)c2scc(C(=O)O)c2n1 (single isomer, unassigned) [Compound 233] | > 20 µM | 0.5 to 5 µM | – |
| Cc1cc(-c2cc(Cl)c(=O)[nH]c2OCCn2c(C)nc3c(c2=O)CC(N(C)C2CC2)CC3)c2scc(C(=O)O)c2n1 (single isomer, unassigned) [Compound 234] | – | 0.5 to 5 µM | > 20 µM |
| Cc1cc(-c2cc(Cl)ccc2OCCn2c(C)nc3c(c2=O)CC(N(C)Cc2ccc(=O)[nH]c2)CC3)c2scc(C(=O)O)c2n1 (single isomer, unassigned) [Compound 236] | – | < 0.1 µM | > 20 µM |

Other lines, results leading:

| IC50 ([1]; Homo sapiens, COLO 205, 72 h) | IC50 (human eIF4E protein) | IC50 [1] | Structure (SMILES) |
| --- | --- | --- | --- |
| < 5 µM | < 0.1 µM | – | Cc1cc(-c2cc(Cl)ccc2OCCn2c(C)nc3c(c2=O)C[C@@H](N2C[C@@H]4CC(F)(F)C[C@@H]4C2)CC3)c2scc(C(=O)NS(C)(=O)=O)c2n1 (relative stereo) [Compound 369] |
| < 5 µM | < 0.1 µM | – | Cc1cc(-c2cc(Cl)ccc2OCCn2c(C)nc3c(c2=O)C[C@@H](N2CCC[C@@H](C(F)F)C2)CC3)c2scc(C(=O)O)c2n1 (single isomer, unassigned) [Compound 100] |
| < 5 µM | < 0.1 µM | – | Cc1cc(-c2cc(Cl)ccc2OCCn2c(C)nc3c(c2=O)C[C@@H](N2CCC[C@H](C(F)F)C2)CC3)c2scc(C(=O)O)c2n1 (single isomer, unassigned) [Compound 101] |
| < 5 µM | < 0.1 µM | – | Cc1cc(-c2cc(Cl)ccc2OCCn2c(C)nc3c(c2=O)CC(N2CCC(OC(F)(F)F)CC2)CC3)c2scc(C(=O)NS(C)(=O)=O)c2n1 (single isomer, unassigned) [Compound 104] |
| – | < 0.1 µM | < 5 µM | Cc1cc(-c2cc(Cl)ccc2OCCn2c(C)nc3c(c2=O)CC(N2CCC(OC(F)(F)F)CC2)CC3)c2scc(C(=O)NS(C)(=O)=O)c2n1 (single isomer, unassigned) [Compound 105] |
| < 5 µM | < 0.1 µM | – | Cc1cc(-c2cc(Cl)ccc2OCCn2c(C)nc3c(c2=O)C[C@@H](N2CCC(CC(F)(F)F)CC2)CC3)c2scc(C(=O)O)c2n1 (single isomer, unassigned) [Compound 106] |
| < 5 µM | < 0.1 µM | – | Cc1cc(-c2cc(Cl)ccc2OCCn2c(C)nc3c(c2=O)C[C@H](N2CCC(CC(F)(F)F)CC2)CC3)c2scc(C(=O)O)c2n1 (single isomer, unassigned) [Compound 107] |
| < 5 µM | < 0.1 µM | – | Cc1cc(-c2cc(Cl)ccc2OCCn2c(C)nc3c(c2=O)C[C@H](N2CCC(n4cc(Cl)cn4)CC2)CC3)c2scc(C(=O)O)c2n1 (single isomer, unassigned) [Compound 108] |
| < 5 µM | < 0.1 µM | – | Cc1cc(-c2cc(Cl)ccc2OCCn2c(C)nc3c(c2=O)C[C@@H](N2CCC(n4cc(Cl)cn4)CC2)CC3)c2scc(C(=O)O)c2n1 (single isomer, unassigned) [Compound 109] |
| 5 to 20 µM | < 0.1 µM | – | Cc1cc(-c2cc(Cl)ccc2OCCn2c(C)nc3c(c2=O)C[C@@H](N2CCC(N4CC(F)(F)C4)CC2)CC3)c2scc(C(=O)O)c2n1 (single isomer, unassigned) [Compound 110] |
| < 5 µM | < 0.1 µM | – | Cc1cc(-c2cc(Cl)ccc2OCCn2c(C)nc3c(c2=O)C[C@H](N2CCC(N4CC(F)(F)C4)CC2)CC3)c2scc(C(=O)O)c2n1 (single isomer, unassigned) [Compound 111] |
| < 5 µM | < 0.1 µM | – | Cc1cc(-c2cc(Cl)ccc2OCCn2c(C)nc3c(c2=O)C[C@@H](N2CC[C@H](C(F)F)C2)CC3)c2scc(C(=O)O)c2n1 (single isomer, unassigned) [Compound 113] |
| < 5 µM | < 0.1 µM | – | Cc1cc(-c2cc(Cl)ccc2OCCn2c(C)nc3c(c2=O)C[C@H](N2CCC[C@@H](C(F)F)C2)CC3)c2scc(C(=O)O)c2n1 (single isomer, unassigned) [Compound 116] |
| < 5 µM | < 0.1 µM | – | Cc1cc(-c2cc(Cl)ccc2OCCn2c(C)nc3c(c2=O)C[C@H](N2CCC[C@H](C(F)F)C2)CC3)c2scc(C(=O)O)c2n1 (single isomer, unassigned) [Compound 117] |
